Measured values as given in patent US7053249B2, “Metal chelates and methods of using them for time-resolved fluorescence” (IDEXX Laboratories, Inc., priority 2002, dated 2006).

Key:
[1] = pKa of the enolic carbon of the β-diketone ligands; conditions: β-diketone ligand
Excerpt: (§1) As mentioned earlier, it is necessary to form the enolate of the dicarbonyl compound for complex formation with metal to occur. […] It is usually (by not universally) desirable to stay below pH 9.0 to allow chelate stability under physiological assay conditions.

[2] = pH range of stable chelate formation; type: physicochemical; conditions: Eu chelate
Excerpt: as §1

- pKa for the enolic carbon [1]: ~4.2
- pH above which a stable chelate is formed [2]: > 4.5 pH
SMILES: O=C(CC(=O)c1ccc2ccccc2c1)c1cc(F)cc(F)c1 [compound 4]
